Measured values reported in patent publication US11161846B2, “Substituted pyrazolo[4,3-b]pyridines and their use as GluN2B receptor modulators” (JANSSEN PHARMACEUTICA NV, priority 2019, dated 2021).

Biological target: T1, human GluN1/GluN2B NMDA receptors (Homo sapiens, UniProt Q05586+Q13224)
T1 construct: expressed in transfected cells
Test: Calcium flux (FLIPR) assay on cloned human NR1/GluN2B ion channels expressed in mammalian cells, standard assay
Assay type: cell-based
Details: glutamate ~EC40 and 10 μM glycine, stable cell line with Tet-On induced expression
Protocol: Effects of Test Articles on Cloned Human NR1/GluN2B Ion Channels Expressed in Mammalian Cells
NMDA receptors are ion channels that are highly permeable to Ca^2+ ions, rendering it possible to monitor NMDA receptor function using cell-based calcium flux assay. In this assay, co-agonists glutamate and glycine are added to cells heterologously expressing human GluN1/GluN2B NMDA receptors to initiate cellular Ca^2+ influx. The time course of the changes in intracellular calcium is measured using a fluorescent dye and a FLIPR (Fluorometric Imaging Plate Reader) device.
Twenty four hours before measurements, the expression of the NMDA receptors in the stable cell line is induced with Tet-On inducible system in the presence of a non-selective NMDA receptor blocker. On the day of the experiment, cell culture media is carefully washed and the cells are loaded with Calcium 5 Dye Kit (Molecular Devices) in dye loading buffer containing 137 mM NaCl, 4 mM KCl, 2 mM CaCl2, 0.5 mM MgCl2 (standard assay) or 1.5 mM MgCl2 (HTS assay), 10 mM HEPES and 5 mM D-glucose; pH 7.4. After 1 h incubation at the room temperature, the dye is washed away with the assay buffer (137 mM NaCl (standard assay) or 150 mM (HTS assay), 4 mM KCl (standard assay) or 3 mM (HTS assay), 2 mM CaC2, 0.01 mM EDTA, 10 mM HEPES and 5 mM D-glucose; pH 7.4) In the FLIPR TETRA reader, various concentrations of the test compounds are added to the cells for 5 min while fluorescence is monitored to detect potential agonist activity. Next, co-agonists, glutamate and glycine are added for another 5 minutes. The concentration of glutamate corresponding to ˜EC40 (standard assay) or EC40 (HTS assay) is used to maximize the assay's signal window and ability to detect NMDA receptor antagonists and negative allosteric modulators. A saturating concentration (10 μM) of glycine is also present in the assay. A non-selective NMDA receptor antagonist, (+)MK-801 is used as a positive control for antagonist activity. The fluorescent signal in the presence of test compounds is quantified and normalized to the signal defined by the appropriate control wells.

T1 sequence (Q13224 27-1484, other chains not shown): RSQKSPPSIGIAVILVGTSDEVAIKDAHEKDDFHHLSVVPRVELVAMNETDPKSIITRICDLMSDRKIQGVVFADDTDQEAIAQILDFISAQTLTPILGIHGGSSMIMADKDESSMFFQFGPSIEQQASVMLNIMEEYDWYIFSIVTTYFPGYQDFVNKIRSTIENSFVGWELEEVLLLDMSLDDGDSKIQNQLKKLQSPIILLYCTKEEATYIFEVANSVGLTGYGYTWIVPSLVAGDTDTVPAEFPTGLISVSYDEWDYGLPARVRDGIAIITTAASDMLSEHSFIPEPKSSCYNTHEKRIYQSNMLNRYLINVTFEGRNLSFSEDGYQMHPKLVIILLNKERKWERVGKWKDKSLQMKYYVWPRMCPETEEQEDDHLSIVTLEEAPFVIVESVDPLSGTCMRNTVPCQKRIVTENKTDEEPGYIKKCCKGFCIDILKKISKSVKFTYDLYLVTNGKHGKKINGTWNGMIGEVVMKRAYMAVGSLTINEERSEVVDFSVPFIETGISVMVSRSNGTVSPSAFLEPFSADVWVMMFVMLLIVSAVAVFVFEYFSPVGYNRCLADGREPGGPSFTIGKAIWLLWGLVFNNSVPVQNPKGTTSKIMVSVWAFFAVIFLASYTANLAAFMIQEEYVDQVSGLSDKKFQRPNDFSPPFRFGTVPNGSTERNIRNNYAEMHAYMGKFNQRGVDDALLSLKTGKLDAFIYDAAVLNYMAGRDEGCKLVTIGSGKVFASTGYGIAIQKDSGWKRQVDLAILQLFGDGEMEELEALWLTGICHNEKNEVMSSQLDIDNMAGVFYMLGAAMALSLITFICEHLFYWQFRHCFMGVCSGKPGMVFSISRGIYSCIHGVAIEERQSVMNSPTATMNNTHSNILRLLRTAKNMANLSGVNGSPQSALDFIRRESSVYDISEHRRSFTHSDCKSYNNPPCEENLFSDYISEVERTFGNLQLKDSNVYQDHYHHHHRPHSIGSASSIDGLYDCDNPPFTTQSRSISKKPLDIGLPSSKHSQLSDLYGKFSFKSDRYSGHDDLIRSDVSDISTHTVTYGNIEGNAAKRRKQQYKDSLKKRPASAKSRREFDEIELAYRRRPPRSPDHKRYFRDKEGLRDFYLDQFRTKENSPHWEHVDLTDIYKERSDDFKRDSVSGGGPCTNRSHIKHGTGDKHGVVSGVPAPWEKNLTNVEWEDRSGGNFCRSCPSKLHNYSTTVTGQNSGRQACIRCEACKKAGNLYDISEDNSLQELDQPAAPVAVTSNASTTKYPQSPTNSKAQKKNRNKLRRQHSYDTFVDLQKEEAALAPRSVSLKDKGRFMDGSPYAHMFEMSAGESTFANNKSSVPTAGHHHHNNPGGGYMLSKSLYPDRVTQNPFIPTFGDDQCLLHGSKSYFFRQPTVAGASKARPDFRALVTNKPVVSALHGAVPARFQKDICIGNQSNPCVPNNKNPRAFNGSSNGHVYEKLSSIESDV

Structure (SMILES) | IC50 [nM]
O=C1OC(Cn2ncc3ncc(-c4ccc(F)c(C(F)F)c4)cc32)CN1C1CC1 (racemic) [Example 134, (RS)-3-Cyclopropyl-5-[[6-[3-(difluoromethyl)-4-fluoro-phenyl]pyrazolo[4,3-b]pyridin-1-yl]methyl]oxazolidin-2-one] | 1630
CCC(O)Cn1ncc2ncc(-c3cccc(C(C)(F)F)c3)cc21 (racemic) [Example 95, (RS)-1-[6-[3-(1,1-Difluoroethyl)phenyl]pyrazolo[4,3-b]pyridin-1-yl]butan-2-ol] | 272
CCC(=O)Cn1ncc2ncc(-c3cccc(F)c3F)cc21 [Example 33, 1-[6-(2,3-Difluorophenyl)pyrazolo[4,3-b]pyridin-1-yl]butan-2-one] | 46
CC(C)C(=O)Cn1ncc2ncc(-c3ccc(F)c(F)c3)cc21 [Example 49, 1-[6-(3,4-Difluorophenyl)pyrazolo[4,3-b]pyridin-1-yl]-3-methyl-butan-2-one] | 25
CN1CC(Cn2ncc3ncc(-c4ccc(F)c(C(F)F)c4)cc32)CC1=O (racemic) [Example 120, (RS)-4-[[6-[3-(Difluoromethyl)-4-fluoro-phenyl]pyrazolo[4,3-b]pyridin-1-yl]methyl]-1-methyl-pyrrolidin-2-one] | 89
CN1C(=O)OCC1Cn1ncc2ncc(-c3ccc(F)c(OC(F)F)c3)cc21 (racemic) [Example 123, (RS)-4-((6-(3-(difluoromethoxy)-4-fluorophenyl)-1H-pyrazolo[4,3-b]pyridin-1-yl)methyl)-3-methyloxazolidin-2-one] | 2830
O=C1O[C@@H](Cn2ncc3ncc(-c4ccc(F)c(C(F)F)c4)cc32)CN1C1CC1 [Example 136, (R)-3-Cyclopropyl-5-[[6-[3-(difluoromethyl)-4-fluoro-phenyl]pyrazolo[4,3-b]pyridin-1-yl]methyl]oxazolidin-2-one] | 997
O=C(Cn1ncc2ncc(-c3ccc(F)c(C(F)(F)F)c3)cc21)C1CC1 [Example 74, 1-Cyclopropyl-2-[6-[4-fluoro-3-(trifluoromethyl)phenyl]pyrazolo[4,3-b]pyridin-1-yl]ethanone] | 36
CC(C)C(=O)Cn1ncc2ncc(-c3ccc(F)c(F)c3F)cc21 [Example 54, 3-Methyl-1-[6-(2,3,4-trifluorophenyl)pyrazolo[4,3-b]pyridin-1-yl]butan-2-one] | 205
O=C(Cn1ncc2ncc(-c3ccc(F)c(F)c3F)cc21)C1CC1 [Example 79, 1-Cyclopropyl-2-[6-(2,3,4-trifluorophenyl)pyrazolo[4,3-b]pyridin-1-yl]ethanone] | 30
O=C(Cn1ncc2ncc(-c3ccc(F)c(C(F)F)c3)cc21)C1CC1 [Example 76, 1-Cyclopropyl-2-[6-[3-(difluoromethyl)-4-fluoro-phenyl]pyrazolo[4,3-b]pyridin-1-yl]ethanone] | 18
CCC(=O)Cn1ncc2ncc(-c3ccc(F)c(F)c3F)cc21 [Example 43, 1-[6-(2,3,4-Trifluorophenyl)pyrazolo[4,3-b]pyridin-1-yl]butan-2-one] | 28
O=C(Cn1ncc2ncc(-c3cc(F)c(F)c(F)c3)cc21)C1CC1 [Example 9, 1-Cyclopropyl-2-[6-(3,4,5-trifluorophenyl)pyrazolo[4,3-b]pyridin-1-yl]ethanone] | 30
O=C(Cn1ncc2ncc(-c3ccc(F)c(C(F)F)c3)cc21)c1ccsc1 [Example 138, 2-[6-[3-(Difluoromethyl)-4-fluoro-phenyl]pyrazolo[4,3-b]pyridin-1-yl]-1-(3-thienyl)ethanone] | 100
CCC(O)Cn1ncc2ncc(-c3ccc(F)c(OC(F)F)c3)cc21 (racemic) [Example 92, (RS)-1-[6-[3-(Difluoromethoxy)-4-fluoro-phenyl]pyrazolo[4,3-b]pyridin-1-yl]butan-2-ol] | 282
O=C(Cn1ncc2ncc(-c3ccc(F)c(Cl)c3)cc21)C1CC1 [Example 68, 2-[6-[3-Chloro-4-fluoro-phenyl)pyrazolo[4,3-b]pyridin-1-yl]-1-cyclopropyl-ethanone] | 7
CCS(=O)(=O)Cn1ncc2ncc(-c3ccc(F)c(OC(F)F)c3)cc21 [Example 13, 6-[3-(Difluoromethoxy)-4-fluoro-phenyl]-1-(ethylsulfonylmethyl)pyrazolo[4,3-b]pyridine] | 1800
CC(=O)Cn1ncc2ncc(-c3ccc(Cl)c(OC(F)F)c3)cc21 [Example 26, 1-[6-[4-Chloro-3-(difluoromethoxy)phenyl]pyrazolo[4,3-b]pyridin-1-yl]propan-2-one] | 36

Structure (SMILES) | IC50 [nM]
CCC(=O)Cn1ncc2ncc(-c3ccc(Cl)s3)cc21 [Example 27, 1-[6-(5-Chloro-2-thienyl)pyrazolo[4,3-b]pyridin-1-yl]butan-2-one] | 13
O=C(Cn1ncc2ncc(-c3ccc(F)c(C(F)F)c3)cc21)c1cccnc1 [Example 16, 2-(6-(3-(Difluoromethyl)-4-fluorophenyl)-1H-pyrazolo[4,3-b]pyridin-1-yl)-1-(pyridin-3-yl)ethan-1-one] | 90
CC(C)C(=O)Cn1ncc2ncc(-c3ccc(F)cc3)cc21 [Example 45, 1-[6-(4-Fluorophenyl)pyrazolo[4,3-b]pyridin-1-yl]-3-methyl-butan-2-one] | 36
CCC(=O)Cn1ncc2ncc(-c3ccc(F)c(F)c3)cc21 [Example 34, 1-[6-(3,4-Difluorophenyl)pyrazolo[4,3-b]pyridin-1-yl]butan-2-one] | 17
CC(C)C(O)Cn1ncc2ncc(-c3ccccc3)cc21 (racemic) [Example 96, (RS)-3-Methyl-1-(6-phenylpyrazolo[4,3-b]pyridin-1-yl)butan-2-ol] | 1530
Cc1ccc(-c2cnc3cnn(CC(=O)C4CC4)c3c2)s1 [Example 56, 1-Cyclopropyl-2-[6-(5-methyl-2-thienyl)pyrazolo[4,3-b]pyridin-1-yl]ethanone] | 15
CC(C)C(=O)Cn1ncc2ncc(-c3cccc(F)c3F)cc21 [Example 48, 1-[6-(2,3-Difluorophenyl)pyrazolo[4,3-b]pyridin-1-yl]-3-methyl-butan-2-one] | 172
O=C(Cn1ncc2ncc(-c3cccc(C(F)(F)F)c3)cc21)C1CC1 [Example 62, 1-Cyclopropyl-2-[6-[3-(trifluoromethyl)phenyl]pyrazolo[4,3-b]pyridin-1-yl]ethanone] | 46
ON=C(Cn1ncc2ncc(-c3cccc(C(F)(F)F)c3)cc21)C1CC1 (mixture of isomers) [Example 106, (E/Z)-1-Cyclopropyl-2-[6-[3-(trifluoromethyl)phenyl]pyrazolo[4,3-b]pyridin-1-yl]ethanone oxime] | 1490
CC(C)C(O)Cn1ncc2ncc(-c3cccc(C(F)(F)F)c3)cc21 (racemic) [Example 3, (RS)-3-Methyl-1-[6-[3-(trifluoromethyl)phenyl]pyrazolo[4,3-b]pyridin-1-yl]butan-2-ol] | 567
CN1C(=O)CCC1Cn1ncc2ncc(-c3ccc(F)c(C(F)F)c3)cc21 (racemic) [Example 115, (RS)-5-[[6-[3-(Difluoromethyl)-4-fluoro-phenyl]pyrazolo[4,3-b]pyridin-1-yl]methyl]-1-methyl-pyrrolidin-2-one] | > 3000
COCCn1ncc2ncc(-c3ccc(F)c(C)c3)cc21 [Example 89, 6-(4-Fluoro-3-methyl-phenyl)-1-(2-methoxyethyl)pyrazolo[4,3-b]pyridine] | 754
CC[S+]([O-])Cn1ncc2ncc(-c3cc(F)c(F)c(F)c3)cc21 (racemic) [Example 88, (RS)-1-(Ethylsulfinylmethyl)-6-(3,4,5-trifluorophenyl)pyrazolo[4,3-b]pyridine] | 736
CN1CC[C@H](Cn2ncc3ncc(-c4ccc(F)c(C(F)F)c4)cc32)C1=O [Example 118, (R)-3-[[6-[3-(Difluoromethyl)-4-fluoro-phenyl]pyrazolo[4,3-b]pyridin-1-yl]methyl]-1-methyl-pyrrolidin-2-one] | 125
CC(C)C(=O)Cn1ncc2ncc(-c3cccc(F)c3)cc21 [Example 46, 1-[6-(3-Fluorophenyl)pyrazolo[4,3-b]pyridin-1-yl]-3-methyl-butan-2-one] | 30
O=C1O[C@H](Cn2ncc3ncc(-c4ccc(F)c(C(F)F)c4)cc32)CN1C1CC1 [Example 135, (S)-3-Cyclopropyl-5-[[6-[3-(difluoromethyl)-4-fluoro-phenyl]pyrazolo[4,3-b]pyridin-1-yl]methyl]oxazolidin-2-one] | > 3000
O=C(Cn1ncc2ncc(-c3ccc(F)c(OC(F)F)c3)cc21)C1CC1 [Example 77, 1-Cyclopropyl-2-[6-[3-(difluoromethoxy)-4-fluoro-phenyl]pyrazolo[4,3-b]pyridin-1-yl]ethanone] | 14
